Read-outs that look alike come from different tables or passages of the source.
Experiments:
Format in all cases: in vivo
[1] = system: Puccinia recondita; test: Greenhouse, Puccinia recondita on wheat, 4 days residual; conditions: Example 31
Protocol: (§1) The trials are carried out under greenhouse (Examples 1 to 32) or field conditions (Examples 33 to 40) in residual or curative applications. The fungicides are applied in single treatments, or in a combination comprising an azolopyrimidine of formula I and a compound selected from the classes (A), (B) and (C) as defined above. The compounds are applied in form of an aqueous spray mix obtained from a concentrated formulation or the technical material.
(§2) 1. Seed is planted in 6 cm diameter plastic pots and maintained in the greenhouse.
(§3) 2. When the primary leaf is fully expanded in the case of cereals or several leaves are present in the case of dicots, formulated test compounds are sprayed with a three nozzle overhead fungicide sprayer to near run-off. Alternatively, a single nozzle overhead track sprayer is used for application of the compounds to cereals at a rate of 200 l/ha. Plants are then allowed to air-dry.
(§4) 3. Inoculation precedes treatment in the case of curative evaluations and follows treatment in case of residual evaluations. For inoculation of powdery mildew disease, plants are set up on greenhouse benches with bottom watering mats and inoculated by dusting them with conidia from infected plants. Between inoculation and treatment for curative evaluations and between treatment and inoculation for residual evaluations, plants are maintained in the greenhouse with bottom watering.
(§5) For inoculation of non-powdery mildew diseases, an aqueous spore suspension of the pathogen is applied to the plant and the plants are kept 1-2 days in a moist infection chamber before being returned to the greenhouse where they are maintained by bottom watering.
(§6) 4. Disease on the foliage as percent leaf area with disease symptoms/signs is evaluated about 7 days after inoculation. In the case of wheat, the tips and bases of the leaves are excluded from the evaluation. [formula]
(§7) 1. Technical compounds are formulated in a solvent/surfactant system consisting of 5% acetone and 0.05% Tween 20 in deionized water. Compounds are dissolved in acetone prior to addition of the water; the Tween 20 can be added through either the acetone or the water. Dilutions are made using the solvent/surfactant system. Formulated compounds are prepared using deionized water.
(§8) 2. Two kinds of controls are included: Plants treated with the solvent/surfactant solution and inoculated (Solvent Blank). Untreated plants which are inoculated (Inoculated Control).
(§9) Assessments of the diseases took place at the indicated day after the application of the compounds. Per cent infected leaf area infected was evaluated. The efficacy of the compounds/compounds mixtures to control the diseases was calculated by using the formula given above under item 4: […]
(§10) Synergy was calculated using the % disease control values of specific treatments for the two COLBY formula given hereinabove
Fungicidal efficacy of the mixture of (S)-Azolopyrimidine C in admixture with Azoxystrobin or Trifloxystrobin (4 days residual) against Puccinia recondita on wheat. The tank mixes were obtained from technical material of (S)-Azolopyrimidine C and Azoxystrobin or Trifloxystrobin.

[2] = system: Puccinia recondita; test: Greenhouse, Puccinia recondita on wheat, 1 day residual; conditions: Puccinia recondita, read-out: Observed Efficacy; for pest or weed control at 0.06 ppm: dose rate 0.06 ppm; for pest or weed control at 0.25 ppm: dose rate 0.25 ppm; for pest or weed control at 1 ppm: dose rate 1 ppm; for pest or weed control at 4 ppm: dose rate 4 ppm
Source text: as §1, with “The” for “The trials are carried out under greenhouse (Examples 1 to 32) or field conditions (Examples 33 to 40) in residual or curative applications. The”
as §2, §3, §4, §5, §6, §7, §8, §9, §10
Fungicidal efficacy of the mixture of Azolopyrimidine C+metconazole (1 day residual) against Puccinia recondita on wheat The tank mix was obtained from a SC formulation containing 100 g Azolopyrimidine C per liter and an EC containing 100 g metconazole per liter. […]
Fungicidal efficacy of the mixture of Azolopyrimidine C+fluazinam (1 day residual) against Puccinia recondita on wheat The tank mix was obtained from technical material of Azolopyrimidine C and a SC formulation containing 500 g fluazinam per liter. […]

[3] = system: Alternaria solani; test: Greenhouse, Alternaria solani on tomatoes, 1 day residual; conditions: Example 25; rate 4 g/ha
Protocol: as §1, §2, §3, §4, §5, §6, §7, §8, §9, §10
Fungicidal efficacy of the mixture of Azolopyrimidine C and different fungicides (1 day residual) against Alternaria solani on tomatoes The tank mix was obtained from an SC formulation containing 100 g Azolopyrimidine A per liter and WP formulations of dithianon (750 g/kg), captan (500 g/kg), cyprodinil (750 g/kg), mancozeb (800 g/kg), or a SC formulation of chlorothalonil (500 g/l), or a FS formulation of fenpiclonil (400 g/l), spectively.

[4] = system: Pyrenophora teres; test: Greenhouse, Pyrenophora teres on barley, 1 day residual; conditions: Example 10
Protocol: as §1, §2, §3, §4, §5, §6, §7, §8, §9, §10
Fungicidal efficacy of the mixture of Azolopyrimidine C+metconazole (1 day residual) against Pyrenophora teres on barley The tank mix was obtained from a SC formulation containing 100 g Azolopyrimidine C per liter and an EC containing 100 g metconazole per liter.

[5] = system: Erysiphe cichoracearum; test: Greenhouse, Erysiphe cichoracearum on cucumbers, 1 day residual
Protocol: as §1, §2, §3, §4, §6, §7, §8, §9, §10
Fungicidal efficacy of the mixture of Azolopyrimidine C+triforine (1 day residual) against Erysiphe cichoracearum on cucumbers
the tank mix was obtained from a SC formulation containing 100 g of Azolopyrimidine C per liter and an DC formulation containing and 190 g of triforine per liter.
Fungicidal efficacy of the mixture of Azolopyrimidine C+cyprodinil (1 day residual) against Erysiphe cichoracearum on cucumbers The tank mix was obtained from a SC formulation containing 100 g of Azolopyrimidine C per liter and a WG formulation containing and 750 g of cyprodinil per kg.

Compound: 5-chloro-6-(2,4,6-trifluorophenyl)-7-(1,1,1-trifluoroprop-2-ylamino)-[1,2,4]triazolo[1,5-a]pyrimidine [(S)-Azolopyrimidine C]
- Observed Efficacy ([1]; dose rate 3.1 ppm): 0%
- Observed Efficacy ([1]; dose rate 6.3 ppm): 9%
- Observed Efficacy ([1]; dose rate 12.5 ppm): 16%
- Observed Efficacy ([1]; dose rate 25 ppm): 27%
- Observed Efficacy ([1]; dose rate 50 ppm): 50%

Compound: CC(Nc1c(-c2c(F)cc(F)cc2F)c(Cl)nc2ncnn12)C(F)(F)F (stereo not shown) [Azolopyrimidine C, 5-chloro-6-(2,4,6-trifluorophenyl)-7-(1,1,1-trifluoroprop-2-ylamino)-[1,2,4]triazolo[1,5-a]pyrimidine]
- pest or weed control at 2 ppm ([2]; Example 11, dose rate 2 ppm): 2%
- pest or weed control at 8 ppm ([2]; Example 11, dose rate 8 ppm): 1%
- pest or weed control at 10 ppm ([2]; Example 11, dose rate 10 ppm): 3%
- pest or weed control at 25 ppm ([2]; Example 11, dose rate 25 ppm): 5%
- pest or weed control at 40 ppm ([2]; Example 11, dose rate 40 ppm): 10%
- pest or weed control at 125 ppm ([2]; Example 11, dose rate 125 ppm): 20%
- pest or weed control at 200 ppm ([2]; Example 11, dose rate 200 ppm): 35%
- pest or weed control at 0.06 ppm ([2]; Example 13): 8%
- pest or weed control at 0.25 ppm ([2]; Example 13): 41%
- pest or weed control at 1 ppm ([2]; Example 13): 71%
- pest or weed control at 4 ppm ([2]; Example 13): 100%
- pest or weed control at 0.06 ppm ([2]; Example 14): 8%
- pest or weed control at 1 ppm ([2]; Example 14): 71%
- pest or weed control at 4 ppm ([2]; Example 14): 100%
- pest or weed control at 0.06 ppm ([2]; Example 15): 8%
- pest or weed control at 0.25 ppm ([2]; Example 15): 49%
- pest or weed control at 1 ppm ([2]; Example 15): 71%
- pest or weed control at 4 ppm ([2]; Example 15): 100%
- pest or weed control at 0.06 ppm ([2]; Example 19): 8%
- pest or weed control at 0.25 ppm ([2]; Example 19): 49%
- pest or weed control at 1 ppm ([2]; Example 19): 71%
- pest or weed control at 4 ppm ([2]; Example 19): 100%
- pest or weed control at 0.86 ppm ([2]; Example 20, dose rate 0.86 ppm): 8%
- pest or weed control at 0.06 ppm ([2]; Example 21): 8%
- pest or weed control at 1 ppm ([2]; Example 22): 71%
- Observed Efficacy [3]: 25%
- Observed Efficacy ([4]; dose rate 10 ppm): 0%
- Observed Efficacy ([4]; dose rate 25 ppm): 0%
- Observed Efficacy ([4]; dose rate 40 ppm): 0%
- Observed Efficacy ([4]; dose rate 50 ppm): 0%
- Observed Efficacy ([4]; dose rate 125 ppm): 0%
- Observed Efficacy ([5]; Example 23, dose rate 1 ppm): 0%
- Observed Efficacy ([5]; Example 23, dose rate 4 ppm): 7%
- Observed Efficacy ([5]; Example 24, dose rate 1 ppm): 0%
- Observed Efficacy ([5]; Example 24, dose rate 4 ppm): 7%
